Among the data in the supplement of paper PMC10307832 are relative viability values, retold here.

What all share (experiment): relative viability (nuclei count vs DMSO), 5 days (fraction); higher = more cells survive
Compound in assay [1]: CC1=C(C=C(C=C1)NC(=O)C2=CC(=CC=C2)C(C)(C)C#N)NC3=CC4=C(C=C3)N=CN(C4=O)C [AZ628] + N=C(N)NC(=N)NCCc1ccccc1 [Phenformin] (partner 250 µM)
Put shortly: (§1)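 Medians of duplicate plates are given as relative viability. That measure is the nuclei count in treated wells divided by the count in vehicle wells. Counts were taken on 4× images of lung cancer cell lines in 1536-well plates, 5 days after pin-tool dosing the day after seeding with one drug alone or a fixed anchor-drug dose plus five library-drug doses (not always all listed) in √10 steps.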

Compound in assay [2]: C[As](C)SC[C@H](NC(=O)CC[C@H](N)C(=O)O)C(=O)NCC(=O)O [Darinaparsin] + Cc1nc(Nc2ncc(C(=O)Nc3c(C)cccc3Cl)s2)cc(N2CCN(CCO)CC2)n1 [Dasatinib] (partner 0.075 µM)
Summed up: as §1

Compound in assay [3]: C1CC2=C(C1)C=C(C=C2)OC3=NC(=C4C(=N3)N(C=N4)CC5=CC=C(C=C5)C6=CC=CC=C6)N[C@@H](CC7=CC=CC=C7)CO [QS11] + O=C(CCCCCCC(=O)Nc1ccccc1)NO [Vorinostat] (partner 1 µM)
Put shortly:
as §1

Compound in assay [4]: CC1=C(C=C(C=C1)NC(=O)C2=CC(=CC=C2)C(C)(C)C#N)NC3=CC4=C(C=C3)N=CN(C4=O)C [AZ628] + CC(=O)Nc1cccc(-n2c(=O)n(C3CC3)c(=O)c3c(Nc4ccc(I)cc4F)n(C)c(=O)c(C)c32)c1 [Trametinib] (partner 0.02 µM)
Put shortly: as §1

Regarding LCLC-97TM1, the relative viability in assay [1] (first compound 0.08 µM) was found to be 0.55; in assay [1] (first compound 0.253 µM), 0.459; in assay [1] (first compound 0.8 µM), 0.421; in assay [1] (first compound 2.53 µM), 0.457; in assay [1] (first compound 8 µM), 0.308; in assay [2] (first compound 0.08 µM), 0.922. Also, the relative viability was 0.664 in assay [2] (first compound 0.8 µM); 0.615 in assay [2] (first compound 2.53 µM); 0.98 in assay [2] (first compound 8 µM); 0.722 in assay [3] (first compound 0.253 µM); 0.615 in assay [3] (first compound 2.53 µM); 0.85 in assay [3] (first compound 8 µM). For the same cell line, the relative viability in assay [4] (first compound 0.08 µM) stood at 0.126; in assay [4] (first compound 0.253 µM) it was 0.118; in assay [4] (first compound 0.8 µM), 0.114; in assay [4] (first compound 2.53 µM) it was 0.0994; in assay [4] (first compound 8 µM), 0.116.
